# Results as given in patent publication US20090018134A1, “Compounds - 945” (AstraZeneca AB, priority 2007, published 2009).
# Target: T1, mTOR (Homo sapiens, UniProt P42345)
# T1 construct: FLAG; made in house
# Experiment: In Vitro mTOR Kinase Assay (Echo), Test (a)(ii)
# Format: biochemical
# Conditions: table of enzyme assay Test (a)(ii); read-out: Test (a)(ii) IC50
# In short: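 Inhibition of truncated mTOR (1362-2549, FLAG-tagged, purified from stably transfected HEK293 cells) is measured as reduced AlphaScreen signal from a phospho-T389-recognising antibody bound to the biotinylated peptide product. Kinase incubation lasts 2 hours at room temperature. Potency is given as IC50.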
# T1 sequence (P42345 1362-2549): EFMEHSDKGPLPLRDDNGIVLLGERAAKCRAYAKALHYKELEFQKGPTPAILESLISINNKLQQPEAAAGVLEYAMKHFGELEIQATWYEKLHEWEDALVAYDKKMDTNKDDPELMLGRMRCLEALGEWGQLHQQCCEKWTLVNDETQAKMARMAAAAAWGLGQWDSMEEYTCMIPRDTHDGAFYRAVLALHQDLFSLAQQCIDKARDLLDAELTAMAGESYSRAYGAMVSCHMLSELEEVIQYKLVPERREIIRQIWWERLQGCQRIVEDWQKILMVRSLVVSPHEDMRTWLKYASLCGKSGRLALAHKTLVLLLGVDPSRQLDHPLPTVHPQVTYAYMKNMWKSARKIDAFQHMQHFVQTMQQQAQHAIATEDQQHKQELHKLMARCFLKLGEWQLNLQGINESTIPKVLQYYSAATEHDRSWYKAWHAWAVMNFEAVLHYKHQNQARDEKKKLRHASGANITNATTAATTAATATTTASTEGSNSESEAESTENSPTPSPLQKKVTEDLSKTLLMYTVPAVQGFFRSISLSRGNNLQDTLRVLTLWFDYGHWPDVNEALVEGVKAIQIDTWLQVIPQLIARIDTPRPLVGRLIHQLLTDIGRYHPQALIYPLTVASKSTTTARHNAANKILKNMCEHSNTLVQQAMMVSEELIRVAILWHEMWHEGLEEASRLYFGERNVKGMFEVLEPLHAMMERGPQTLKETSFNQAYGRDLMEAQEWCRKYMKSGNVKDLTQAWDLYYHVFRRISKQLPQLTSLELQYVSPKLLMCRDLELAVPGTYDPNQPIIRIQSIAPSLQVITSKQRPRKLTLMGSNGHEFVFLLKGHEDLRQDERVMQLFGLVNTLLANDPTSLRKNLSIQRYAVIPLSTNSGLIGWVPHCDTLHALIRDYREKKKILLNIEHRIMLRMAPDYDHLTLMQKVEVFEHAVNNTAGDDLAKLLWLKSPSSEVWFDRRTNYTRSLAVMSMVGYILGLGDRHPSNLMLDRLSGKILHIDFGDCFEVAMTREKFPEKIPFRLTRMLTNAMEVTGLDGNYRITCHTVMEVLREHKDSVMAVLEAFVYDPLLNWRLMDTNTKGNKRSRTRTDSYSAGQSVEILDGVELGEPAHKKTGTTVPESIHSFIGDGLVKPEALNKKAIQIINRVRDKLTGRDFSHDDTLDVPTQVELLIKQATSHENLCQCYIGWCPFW
row,IC50,Structure (SMILES)
1,0.101 µM,"Cc1noc(C)c1S(=O)(=O)C1(c2cc(N3CCOC[C@@H]3C)nc(-c3ccc(NC(=O)Nc4cnn(C)c4)cc3)n2)CC1 [Example 59g, 1-[4-[4-[1-[(3,5-dimethyl-1,2-oxazol-4-yl)sulfonyl]cyclopropyl]-6-[(3S)-3-methylmorpholin-4-yl]pyrimidin-2-yl]phenyl]-3-(1-methylpyrazol-4-yl)urea]"
2,0.012 µM,"CNC(=O)Nc1ccc(-c2nc(N3CCOC[C@@H]3C)cc(C3(S(=O)(=O)c4cc(F)ccc4F)CC3)n2)cc1 [Example 60, 1-[4-[4-[1-(2,5-Difluorophenyl)sulfonylcyclopropyl]-6-[(3S)-3-methylmorpholin-4-yl]pyrimidin-2-yl]phenyl]-3-methylurea]"
3,0.0191 µM,"C[C@H]1COCCN1c1cc(C2(S(=O)(=O)c3cc(F)ccc3F)CC2)nc(-c2ccc(NC(=O)NC3CC3)cc2)n1 [Example 60a, 3-cyclopropyl-1-[4-[4-[1-(2,5-difluorophenyl)sulfonylcyclopropyl]-6-[(3S)-3-methylmorpholin-4-yl]pyrimidin-2-yl]phenyl]urea]"
4,0.00862 µM,"C[C@H]1COCCN1c1cc(C2(S(=O)(=O)c3cc(F)ccc3F)CC2)nc(-c2ccc(NC(=O)NCCO)cc2)n1 [Example 60b, 1-[4-[4-[1-(2,5-difluorophenyl)sulfonylcyclopropyl]-6-[(3S)-3-methylmorpholin-4-yl]pyrimidin-2-yl]phenyl]-3-(2-hydroxyethyl)urea]"
5,0.00695 µM,"C[C@H]1COCCN1c1cc(C2(S(=O)(=O)c3cc(F)ccc3F)CC2)nc(-c2ccc(NC(=O)NCCF)cc2)n1 [Example 60c, 1-[4-[4-[1-(2,5-difluorophenyl)sulfonylcyclopropyl]-6-[(3S)-3-methylmorpholin-4-yl]pyrimidin-2-yl]phenyl]-3-(2-fluoroethyl)urea]"
6,0.0183 µM,"C[C@H]1COCCN1c1cc(C2(S(=O)(=O)c3cc(F)ccc3F)CC2)nc(-c2ccc(NC(=O)NCC(F)F)cc2)n1 [Example 60d, 3-(2,2-difluoroethyl)-1-[4-[4-[1-(2,5-difluorophenyl)sulfonylcyclopropyl]-6-[(3S)-3-methylmorpholin-4-yl]pyrimidin-2-yl]phenyl]urea]"
7,0.0116 µM,"CCNC(=O)Nc1ccc(-c2nc(N3CCOC[C@@H]3C)cc(C3(S(=O)(=O)c4cc(F)ccc4F)CC3)n2)cc1 [Example 60e, 3-[4-[4-[1-(2,5-difluorophenyl)sulfonylcyclopropyl]-6-[(3S)-3-methylmorpholin-4-yl]pyrimidin-2-yl]phenyl]-1-ethylurea]"
8,0.0173 µM,"C[C@H]1COCCN1c1cc(C2(S(=O)(=O)c3cc(F)ccc3F)CC2)nc(-c2ccc(NC(=O)Nc3cnn(C)c3)cc2)n1 [Example 60f, 1-[4-[4-[1-(2,5-difluorophenyl)sulfonylcyclopropyl]-6-[(3S)-3-methylmorpholin-4-yl]pyrimidin-2-yl]phenyl]-3-(1-methylpyrazol-4-yl)urea]"
9,0.0269 µM,"CNC(=O)Nc1ccc(-c2nc(N3CCOC[C@@H]3C)cc(C3(S(=O)(=O)c4cc(F)ccc4C)CC3)n2)cc1 [Example 61, 1-[4-[4-[1-(5-Fluoro-2-methylphenyl)sulfonylcyclopropyl]-6-[(3S)-3-methylmorpholin-4-yl]pyrimidin-2-yl]phenyl]-3-methylurea]"
10,0.0326 µM,"Cc1ccc(F)cc1S(=O)(=O)C1(c2cc(N3CCOC[C@@H]3C)nc(-c3ccc(NC(=O)NC4CC4)cc3)n2)CC1 [Example 61a, 3-cyclopropyl-1-[4-[4-[1-(5-fluoro-2-methylphenyl)sulfonylcyclopropyl]-6-[(3S)-3-methylmorphohn-4-yl]pyrimidin-2-yl]phenyl]urea]"
11,0.0136 µM,"Cc1ccc(F)cc1S(=O)(=O)C1(c2cc(N3CCOC[C@@H]3C)nc(-c3ccc(NC(=O)NCCO)cc3)n2)CC1 [Example 61b, 1-[4-[4-[1-(5-fluoro-2-methylphenyl)sulfonylcyclopropyl]-6-[(3S)-3-methylmorpholin-4-yl]pyrimidin-2-yl]phenyl]-3-(2-hydroxyethyl)urea]"
12,0.0211 µM,"Cc1ccc(F)cc1S(=O)(=O)C1(c2cc(N3CCOC[C@@H]3C)nc(-c3ccc(NC(=O)NCCF)cc3)n2)CC1 [Example 61c, 3-(2-fluoroethyl)-1-[4-[4-[1-(5-fluoro-2-methylphenyl)sulfonylcyclopropyl]-6-[(3S)-3-methylmorpholin-4-yl]pyrimidin-2-yl]phenyl]urea]"
13,0.0438 µM,"Cc1ccc(F)cc1S(=O)(=O)C1(c2cc(N3CCOC[C@@H]3C)nc(-c3ccc(NC(=O)NCC(F)F)cc3)n2)CC1 [Example 61d, 3-(2,2-difluoroethyl)-1-[4-[4-[1-(5-fluoro-2-methylphenyl)sulfonylcyclopropyl]-6-[(3S)-3-methylmorphohn-4-yl]pyrimidin-2-yl]phenyl]urea]"
14,0.0237 µM,"CCNC(=O)Nc1ccc(-c2nc(N3CCOC[C@@H]3C)cc(C3(S(=O)(=O)c4cc(F)ccc4C)CC3)n2)cc1 [Example 61e, 1-ethyl-3-[4-[4-[1-(5-fluoro-2-methylphenyl)sulfonylcyclopropyl]-6-[(3S)-3-methylmorpholin-4-yl]pyrimidin-2-yl]phenyl]urea]"
15,0.0328 µM,"Cc1ccc(F)cc1S(=O)(=O)C1(c2cc(N3CCOC[C@@H]3C)nc(-c3ccc(NC(=O)Nc4cnn(C)c4)cc3)n2)CC1 [Example 61f, 1-[4-[4-[1-(5-fluoro-2-methylphenyl)sulfonylcyclopropyl]-6-[(3S)-3-methylmorpholin-4-yl]pyrimidin-2-yl]phenyl]-3-(1-methylpyrazol-4-yl)urea]"
16,0.00205 µM,"C[C@H]1COCCN1c1cc(C2(S(C)(=O)=O)CCC2)nc(-c2ccc(NC(=S)NCCO)cc2)n1 [Example 62, 3-(2-Hydroxyethyl)-1-[4-[4-[(3S)-3-methylmorpholin-4-yl]-6-(1-methylsulfonylcyclobutyl)pyrimidin-2-yl]phenyl]thiourea]"
17,0.0393 µM,"C[C@H]1COCCN1c1cc(C2(S(C)(=O)=O)CCC2)nc(-c2ccc(NC(=S)NCc3ncc[nH]3)cc2)n1 [Example 62a, 3-(1H-imidazol-2-ylmethyl)-1-[4-[4-[(3S)-3-methylmorpholin-4-yl]-6-(1-methylsulfonylcyclobutyl)pyrimi-din-2-yl]phenyl]thiourea]"
18,0.00546 µM,"C[C@@H](CO)NC(=S)Nc1ccc(-c2nc(N3CCOC[C@@H]3C)cc(C3(S(C)(=O)=O)CCC3)n2)cc1 [Example 62b, 3-[(2S)-1-hydroxypropan-2-yl]-1-[4-[4-[(3S)-3-methylmorpholin-4-yl]-6-(1-methylsulfonylcyclobutyl)pyrimi-din-2-yl]phenyl]thiourea]"
19,0.0375 µM,"C[C@H](CO)NC(=S)Nc1ccc(-c2nc(N3CCOC[C@@H]3C)cc(C3(S(C)(=O)=O)CCC3)n2)cc1 [Example 62c, 3-[(2R)-1-hydroxypropan-2-yl]-1-[4-[4-[(3S)-3-methylmorpholin-4-yl]-6-(1-methylsulfonylcyclobutyl)pyrimi-din-2-yl]phenyl]thiourea]"
20,0.022 µM,"C[C@H]1COCCN1c1cc(C2(S(C)(=O)=O)CCC2)nc(-c2ccc(NC(=S)NCCCO)cc2)n1 [Example 62d, 3-(3-hydroxypropyl)-1-[4-[4-[(3S)-3-methylmorpholin-4-yl]-6-(1-methylsulfonylcyclobutyl)pyrimi-din-2-yl]phenyl]thiourea]"
21,0.0725 µM,"C[C@H]1COCCN1c1cc(C2(S(=O)(=O)c3ccncc3)CCC2)nc(-c2ccc(NC(=S)NCc3ncc[nH]3)cc2)n1 [Example 63, 3-(1H-Imidazol-2-ylmethyl)-1-[4-[4-[(3S)-3-methylmorpholin-4-yl]-6-(1-pyridin-4-ylsulfonylcyclobutyl)pyrimidin-2-yl]phenyl]thiourea]"
22,0.00785 µM,"C[C@H]1COCCN1c1cc(C2(S(=O)(=O)c3ccc(OC(F)F)cc3)CC2)nc(-c2ccc(NC(=O)NC3CC3)cc2)n1 [Example 64, 3-Cyclopropyl-1-[4-[4-[1-[4-(difluoromethoxy)phenyl]sulfonylcyclopropyl]-6-[(3 S)-3-methylmorpholin-4-yl]pyrimidin-2-yl]phenyl]urea]"
23,0.0052 µM,"CNC(=O)Nc1ccc(-c2nc(N3CCOC[C@@H]3C)cc(C3(S(=O)(=O)c4ccc(OC(F)F)cc4)CC3)n2)cc1 [Example 64a, 1-[4-[4-[1-[4-(difluoromethoxy)phenyl]sulfonyl-cyclopropyl]-6-[(3S)-3-methylmorpholin-4-yl]pyrimidin-2-yl]phenyl]-3-methylurea]"
24,0.00388 µM,"C[C@H]1COCCN1c1cc(C2(S(C)(=O)=O)CC2)nc(-c2ccc(NC(=O)NCCF)cc2)n1 [Example 64aa, 3-(2-fluoroethyl)-1-[4-[4-[(3S)-3-methylmorpholin-4-yl]-6-(1-methylsulfonylcyclopropyl)pyrimi-din-2-yl]phenyl]urea]"
25,0.0094 µM,"C[C@H]1COCCN1c1cc(C2(S(C)(=O)=O)CC2)nc(-c2ccc(NC(=O)NCC(F)F)cc2)n1 [Example 64ab, 3-(2,2-difluoroethyl)-1-[4-[4-[(3S)-methylsulfonylcyclopropyl)pyrimi-din-2-yl]phenyl]urea]"
26,0.00529 µM,"Cc1csc(S(=O)(=O)C2(c3cc(N4CCOC[C@@H]4C)nc(-c4ccc(NC(=O)N[C@@H](C)CO)cc4)n3)CC2)n1 [Example 64ac, 3-[(2S)-1-hydroxypropan-2-yl]-1-[4-[4-[(3S)-3-methylmorpholin-4-yl]-6-[1-[(4-methyl-1,3-thiazol-2-yl)sulfonyl]cyclopropyl]pyrimidin-2-yl]phenyl]urea]"
27,0.00213 µM,"Cc1csc(S(=O)(=O)C2(c3cc(N4CCOC[C@@H]4C)nc(-c4ccc(NC(=O)NCCF)cc4)n3)CC2)n1 [Example 64ae, 3-(2-fluoroethyl)-1-[4-[4-[(3S)-3-methylmorpholin-4-yl]-6-[1-[(4-methyl-1,3-thiazol-2-yl)sulfonyl]cyclopropyl]pyrimidin-2-yl]phenyl]urea]"
28,0.00339 µM,"C[C@H]1COCCN1c1cc(C2(S(=O)(=O)c3ccccn3)CC2)nc(-c2ccc(NC(=O)NCC(F)F)cc2)n1 [Example 64af, 3-(2,2-difluoroethyl)-1-[4-[4-[(3S)-3-methylmorpholin-4-yl]-6-(1-pyridin-2-ylsulfonylcyclopropyl)pyrimidin-2-yl]phenyl]urea]"
